Where no end group is shown, it is not given here.
System: GM-CSF
Test: GM-CSF activity on bone marrow precursors (liquid culture, methylene blue dye absorbance of adherent granulocytes and macrophages)
Assay type: cell-based, murine
Conditions: at any of the test concentrations (Figure 2)
Protocol: To determine the effect of the desired inhibitory oligopeptide, the following assay, using murine bone marrow precursors, was developed. Of course, if using an oligopeptide derivable from a species other than murine, substitution of cells from that species into the assay procedure would be required.
The biological activity of GM-CSF was determined in a liquid culture system of murine bone marrow cells (see, e.g., I. Bursuker, et al., J. Reticuloendothelial Soc., 25, 533 (1979)). Bone marrow cells were collected from femurs and tibia of 10 to 12 week old CB6F1 (C57BLxBalb/c) male mice (Harlan-Sprague Dawley, Inc., Indianapolis, Indiana) by flushing dissected and clean bones with phosphate buffered saline ("PBS", GIBCO, Grand Island, New York). Viable cell count was determined using trypan blue. The cells then were plated (1 ml/well; 2 X 10^5 cells/ml) in 24-well tissue culture plates (Costar, Cambridge, MA). Granulocyte-macrophage colony stimulating factor ("GM-CSF"; 2 ng/ml; recombinantly produced and available from PeproTech, Inc., Rocky Hill, NJ) and the desired oligopeptide were added at the desired concentration to the wells. […] The dye absorbance was measured at 620 nm in a MCC/340 Titertech Multiscan plate reader (Eflab, Helsinki, Finland). The dye absorbance reading is proportional to the number of cells in the culture.

## YYQTYCPPTPETD [Oligopeptide P96-109, oligopeptide spanning a region of the murine GM-CSF molecule, 13 amino acids]
  effect on the biological activity of GM-CSF: did not affect
